Columns and labels:
[1] = test system: HCV genotype 1b (Con1) replicon in HUH-7 cells; test: HCV replicon luciferase reporter assay, genotype 1b; format: cell-based; conditions: Hepatitis C virus, Huh-7, 72 h, HCV genotype 1b replicon luciferase assay, 3 days incubation, range class, read-out: LE_1b (EC50, range)
Method in brief: (§1)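 Replicon inhibition for both genotypes was measured as Renilla luciferase signal (EnduRen, 7.5 μM final, 2 h) after 3-day, 37° C exposure of replicon-bearing HUH-7 cells in 4% FCS DMEM, 0.5% DMSO. The 1b construct carries S1179I; the 1a H77 construct carries P1496L and S2204I. Twenty-point, 3-fold dilutions were fitted four-parametrically for EC50, and CC50 was taken from multiplexed Cell Titer-Blue.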

[2] = test system: HCV genotype 1a (H77 strain) replicon in HUH-7 cells; test: HCV replicon luciferase reporter assay, genotype 1a; format: cell-based; conditions: Hepatitis C virus, Huh-7, 72 h, HCV genotype 1a replicon luciferase assay, 3 days incubation, range class, read-out: LE_1a (EC50, range)
Method in brief: as §1

Row | Structure (SMILES) | EC50 [1] | EC50 [2]
1 | COc1cnc(O[C@@H]2C[C@H]3C(=O)N[C@]4(C(=O)NS(=O)(=O)C5(CF)CC5)C[C@H]4/C=C\CC[C@H](C)C[C@@H](C)[C@H](NC(=O)OC4(C(F)(F)F)CCCOC4)C(=O)N3C2)c2ccccc12 (stereo partly drawn) [Compound 1057, 3-(trifluoromethyl)tetrahydro-2H-pyran-3-yl((2R,6S,7R,9S,13aS,14aR,16aS,Z)-14a-(((1-(fluoromethyl)cyclopropyl)sulfonyl)carbamoyl)-2-((4-methoxyisoquinolin-1-yl)oxy)-7,9-dimethyl-5,16-dioxo-1,2,3,5,6,7,8,9,10,11,13a,14,14a,15,16,16a-hexadecahydrocyclopropa[e]pyrrolo[1,2-a][1,4]diazacyclopentadecin-6-yl)carbamate] | < 5.46 nM | < 5.46 nM
2 | COc1cnc(O[C@@H]2C[C@H]3C(=O)N[C@]4(C(=O)NS(=O)(=O)C5(CF)CC5)C[C@H]4/C=C\CC[C@@H](C)C[C@@H](C)[C@H](NC(=O)OC4(C(F)(F)F)CCCOC4)C(=O)N3C2)c2ccccc12 (stereo partly drawn) [Compound 1058, 3-(trifluoromethyl)tetrahydro-2H-pyran-3-yl((2R,6S,7R,9R,13aS,14aR,16aS,Z)-14a-(((1-(fluoromethyl)cyclopropyl)sulfonyl)carbamoyl)-2-((4-methoxyisoquinolin-1-yl)oxy)-7,9-dimethyl-5,16-dioxo-1,2,3,5,6,7,8,9,10,11,13a,14,14a,15,16,16a-hexadecahydrocyclopropa[e]pyrrolo[1,2-a][1,4]diazacyclopentadecin-6-yl)carbamate] | < 5.46 nM | < 5.46 nM
3 | COc1cnc(O[C@@H]2C[C@H]3C(=O)N[C@]4(C(=O)NS(=O)(=O)C5(CF)CC5)C[C@H]4/C=C\CC[C@H](C)C[C@@H](C)[C@H](NC(=O)OC4(C5CC5)COC4)C(=O)N3C2)c2ccccc12 [Compound 1059, 3-cyclopropyloxetan-3-yl((2R,6S,7R,9S,13aS,14aR,16aS,Z)-14a-(((1-(fluoromethyl)cyclopropyl)sulfonyl)carbamoyl)-2-((4-methoxyisoquinolin-1-yl)oxy)-7,9-dimethyl-5,16-dioxo-1,2,3,5,6,7,8,9,10,11,13a,14,14a,15,16,16a-hexadecahydrocyclopropa[e]pyrrolo[1,2-a][1,4]diazacyclopentadecin-6-yl)carbamate] | 4.82 to 103 nM | 4.82 to 103 nM
4 | COc1cnc(O[C@@H]2C[C@H]3C(=O)N[C@]4(C(=O)NS(=O)(=O)C5(CF)CC5)C[C@H]4/C=C\CC[C@@H](C)C[C@@H](C)[C@H](NC(=O)OC4(C5CC5)COC4)C(=O)N3C2)c2ccccc12 [Compound 1060, 3-cyclopropyloxetan-3-yl((2R,6S,7R,9R,13aS,14aR,16aS,Z)-14a-(((1-(fluoromethyl)cyclopropyl)sulfonyl)carbamoyl)-2-((4-methoxyisoquinolin-1-yl)oxy)-7,9-dimethyl-5,16-dioxo-1,2,3,5,6,7,8,9,10,11,13a,14,14a,15,16,16a-hexadecahydrocyclopropa[e]pyrrolo[1,2-a][1,4]diazacyclopentadecin-6-yl)carbamate] | < 5.46 nM | < 5.46 nM
5 | COc1cnc(O[C@@H]2C[C@H]3C(=O)N[C@]4(C(=O)NS(=O)(=O)C5(CF)CC5)C[C@H]4/C=C\CC[C@H](C)C[C@@H](C)[C@H](NC(=O)OC(C)(C)CC(F)(F)F)C(=O)N3C2)c2ccccc12 [Compound 1061, 4,4,4-trifluoro-2-methylbutan-2-yl((2R,6S,7R,9S,13aS,14aR,16aS,Z)-14a-(((1-(fluoromethyl)cyclopropyl)sulfonyl)carbamoyl)-2-((4-methoxyisoquinolin-1-yl)oxy)-7,9-dimethyl-5,16-dioxo-1,2,3,5,6,7,8,9,10,11,13a,14,14a,15,16,16a-hexadecahydrocyclopropa[e]pyrrolo[1,2-a][1,4]diazacyclopentadecin-6-yl)carbamate] | 4.82 to 103 nM | 4.82 to 103 nM
6 | COc1cnc(O[C@@H]2C[C@H]3C(=O)N[C@]4(C(=O)NS(=O)(=O)C5(CF)CC5)C[C@H]4/C=C\CC[C@@H](C)C[C@@H](C)[C@H](NC(=O)OC(C)(C)CC(F)(F)F)C(=O)N3C2)c2ccccc12 [Compound 1062, 4,4,4-trifluoro-2-methylbutan-2-yl((2R,6S,7R,9R,13aS,14aR,16aS,Z)-14a-(((1-(fluoromethyl)cyclopropyl)sulfonyl)carbamoyl)-2-((4-methoxyisoquinolin-1-yl)oxy)-7,9-dimethyl-5,16-dioxo-1,2,3,5,6,7,8,9,10,11,13a,14,14a,15,16,16a-hexadecahydrocyclopropa[e]pyrrolo[1,2-a][1,4]diazacyclopentadecin-6-yl)carbamate] | < 5.46 nM | < 5.46 nM
7 | COc1cnc(O[C@@H]2C[C@H]3C(=O)N[C@]4(C(=O)NS(=O)(=O)C5(CF)CC5)C[C@H]4/C=C\CC[C@H](C)C[C@@H](C)[C@H](NC(=O)OC4(C)CCOC4)C(=O)N3C2)c2ccccc12 (stereo partly drawn) [Compound 1063, 3-methyltetrahydrofuran-3-yl ((2R,6S,7R,9S,13aS,14aR,16aS,Z)-14a-(((1-(fluoromethyl)cyclopropyl)sulfonyl)carbamoyl)-2-((4-methoxyisoquinolin-1-yl)oxy)-7,9-dimethyl-5,16-dioxo-1,2,3,5,6,7,8,9,10,11,13a,14,14a,15,16,16a-hexadecahydrocyclopropa[e]pyrrolo[1,2-a][1,4]diazacyclopentadecin-6-yl)carbamate] | < 5.46 nM | 4.82 to 103 nM
8 | COc1cnc(O[C@@H]2C[C@H]3C(=O)N[C@]4(C(=O)NS(=O)(=O)C5(CF)CC5)C[C@H]4/C=C\CC[C@@H](C)C[C@@H](C)[C@H](NC(=O)OC4(C)CCOC4)C(=O)N3C2)c2ccccc12 (stereo partly drawn) [Compound 1064, 3-methyltetrahydrofuran-3-yl ((2R,6S,7R,9R,13aS,14aR,16aS,Z)-14a-(((1-(fluoromethyl)cyclopropyl)sulfonyl)carbamoyl)-2-((4-methoxyisoquinolin-1-yl)oxy)-7,9-dimethyl-5,16-dioxo-1,2,3,5,6,7,8,9,10,11,13a,14,14a,15,16,16a-hexadecahydrocyclopropa[e]pyrrolo[1,2-a][1,4]diazacyclopentadecin-6-yl)carbamate] | < 5.46 nM | < 5.46 nM
9 | COc1cnc(O[C@@H]2C[C@H]3C(=O)N[C@]4(C(=O)NS(=O)(=O)C5(CF)CC5)C[C@H]4/C=C\CC[C@H](C)C[C@@H](C)[C@H](NC(=O)OC4(C(F)(F)F)CCOC4)C(=O)N3C2)c2ccccc12 (stereo partly drawn) [Compound 1065, 3-(trifluoromethyl)tetrahydrofuran-3-yl((2R,6S,7R,9S,13aS,14aR,16aS,Z)-14a-(((1-(fluoromethyl)cyclopropyl)sulfonyl)carbamoyl)-2-((4-methoxyisoquinolin-1-yl)oxy)-7,9-dimethyl-5,16-dioxo-1,2,3,5,6,7,8,9,10,11,13a,14,14a,15,16,16a-hexadecahydrocyclopropa[e]pyrrolo[1,2-a][1,4]diazacyclopentadecin-6-yl)carbamate] | < 5.46 nM | 4.82 to 103 nM
10 | COc1cnc(O[C@@H]2C[C@H]3C(=O)N[C@]4(C(=O)NS(=O)(=O)C5(CF)CC5)C[C@H]4/C=C\CC[C@@H](C)C[C@@H](C)[C@H](NC(=O)OC4(C(F)(F)F)CCOC4)C(=O)N3C2)c2ccccc12 (stereo partly drawn) [Compound 1066, 3-(trifluoromethyl)tetrahydrofuran-3-yl((2R,6S,7R,9R,13aS,14aR,16aS,Z)-14a-(((1-(fluoromethyl)cyclopropyl)sulfonyl)carbamoyl)-2-((4-methoxyisoquinolin-1-yl)oxy)-7,9-dimethyl-5,16-dioxo-1,2,3,5,6,7,8,9,10,11,13a,14,14a,15,16,16a-hexadecahydrocyclopropa[e]pyrrolo[1,2-a][1,4]diazacyclopentadecin-6-yl)carbamate] | < 5.46 nM | < 5.46 nM
11 | COc1ccc2c(O[C@@H]3C[C@H]4C(=O)N[C@]5(C(=O)NS(=O)(=O)C6CC6)C[C@H]5/C=C\CC[C@H](C)C[C@@H](C)[C@H](NC(=O)OC(C)(C)C)C(=O)N4C3)nccc2c1 [Compound 1067, tert-butyl ((2R,6S,7R,9S,13aS,14aR,16aS,Z)-14a-((cyclopropylsulfonyl)carbamoyl)-2-((6-methoxyisoquinolin-1-yl)oxy)-7,9-dimethyl-5,16-dioxo-1,2,3,5,6,7,8,9,10,11,13a,14,14a,15,16,16a-hexadecahydrocyclopropa[e]pyrrolo[1,2-a][1,4]diazacyclopentadecin-6-yl)carbamate] | < 5.46 nM | < 5.46 nM
12 | COc1ccc2c(O[C@@H]3C[C@H]4C(=O)N[C@]5(C(=O)NS(=O)(=O)C6CC6)C[C@H]5/C=C\CC[C@@H](C)C[C@@H](C)[C@H](NC(=O)OC(C)(C)C)C(=O)N4C3)nccc2c1 [Compound 1068, tert-butyl ((2R,6S,7R,9R,13aS,14aR,16aS,Z)-14a-((cyclopropylsulfonyl)carbamoyl)-2-((6-methoxyisoquinolin-1-yl)oxy)-7,9-dimethyl-5,16-dioxo-1,2,3,5,6,7,8,9,10,11,13a,14,14a,15,16,16a-hexadecahydrocyclopropa[e]pyrrolo[1,2-a][1,4]diazacyclopentadecin-6-yl)carbamate] | < 5.46 nM | < 5.46 nM
13 | CCCOc1cc2c(Cl)cccc2c(O[C@@H]2C[C@H]3C(=O)N[C@]4(C(=O)NS(=O)(=O)C5CC5)C[C@H]4/C=C\CC[C@H](C)C[C@@H](C)[C@H](NC(=O)OC(C)(C)C)C(=O)N3C2)n1 [Compound 1069, tert-butyl ((2R,6S,7R,9S,13aS,14aR,16aS,Z)-2-((5-chloro-3-propoxyisoquinolin-1-yl)oxy)-14a-((cyclopropylsulfonyl)carbamoyl)-7,9-dimethyl-5,16-dioxo-1,2,3,5,6,7,8,9,10,11,13a,14,14a,15,16,16a-hexadecahydrocyclopropa[e]pyrrolo[1,2-a][1,4]diazacyclopentadecin-6-yl)carbamate] | < 5.46 nM | < 5.46 nM

— patent publication US9499550B2 (BRISTOL-MYERS SQUIBB COMPANY, priority 2012, dated 2016)
